Data on 1 molecule can be found in paper PMC8607231, “Generation of KS-133 as a Novel Bicyclic Peptide with a Potent and Selective VIPR2 Antagonist Activity that Counteracts Cognitive Decline in a Mouse Model of Psychiatric Disorders” (Frontiers in Pharmacology, 2021).

Where a SMILES comes first, the peptide text is derived from it. Bridges are numbered along the chain shown (N, C = ends). A value given as a limit tells only on which side of the number the result lay.

For data set [1], the target named is T1, human VIPR2 (Homo sapiens, UniProt P41587).
T1 construct: host or cells: CHO-K1
T1 sequence (P41587 24-438): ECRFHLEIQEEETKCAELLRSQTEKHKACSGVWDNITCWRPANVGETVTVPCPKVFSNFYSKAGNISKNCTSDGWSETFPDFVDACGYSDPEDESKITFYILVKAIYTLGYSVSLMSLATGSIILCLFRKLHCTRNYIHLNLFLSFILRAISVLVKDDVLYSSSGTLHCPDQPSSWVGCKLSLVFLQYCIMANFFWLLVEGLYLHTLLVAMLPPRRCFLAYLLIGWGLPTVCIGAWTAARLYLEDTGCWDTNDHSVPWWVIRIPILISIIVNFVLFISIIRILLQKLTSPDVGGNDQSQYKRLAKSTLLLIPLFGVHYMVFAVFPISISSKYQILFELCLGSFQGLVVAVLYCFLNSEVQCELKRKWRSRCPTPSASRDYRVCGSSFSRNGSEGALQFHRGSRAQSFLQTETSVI
The data set is described as follows: HitHunter cAMP assay, agonist mode. It counts as cell-based. As for the experimental part:
Evaluation of antagonist activities of peptides against VIP-VIPR1, VIP-VIPR2, and PACAP-PAC1 signaling pathways and agonistic activity of KS-133 at VIPR2 was carried out by Eurofins DiscoverX (Fremont, CA, United States). Intracellular calcium mobilization was monitored using a calcium-sensitive dye loaded in CHO-K1 cells expressing human VIPR1 (ITEM 86-0030P-2243AN), VIPR2 (ITEM 86-0030P-2244AN), and PAC1 (ITEM 86-0030P-2066AN). The cells were preincubated with antagonistic peptides for 30 min at room temperature in the dark. After addition of the ligand at EC80, calcium mobilization was immediately monitored by FLIPR Tetra for 2 min. Cyclic AMP production in CHO-K1 cells expressing human VIPR2 was evaluated using HitHunter® cAMP assays (antagonist mode: ITEM 86-0007P-2362AN; agonist mode: ITEM 86-0007P-2362AG). […] Cells were lysed and the cAMP content of the cell lysate was determined by the β-galactosidase-based enzyme fragment complementation assay ([Eglen, 2002]). […]
FIGURE 3 Antagonistic/agonistic activities of peptides in the calcium influx and cAMP assays. […] In the calcium influx assay, after addition of ligand at EC80, calcium mobilization was monitored immediately (see details in the Methods section) (n = 4 wells for each treatment). […]
Next, antagonistic and agonistic activities of KS-133 at VIPR2 were evaluated by a cAMP assay. […]
In general terms: cAMP levels reflect the balance of adenylyl cyclase and phosphodiesterase activity.

Data set [2] deals with T2, human PAC1 (Homo sapiens, UniProt P41586).
T2 construct: host or cells: CHO-K1
T2 sequence (P41586 21-468): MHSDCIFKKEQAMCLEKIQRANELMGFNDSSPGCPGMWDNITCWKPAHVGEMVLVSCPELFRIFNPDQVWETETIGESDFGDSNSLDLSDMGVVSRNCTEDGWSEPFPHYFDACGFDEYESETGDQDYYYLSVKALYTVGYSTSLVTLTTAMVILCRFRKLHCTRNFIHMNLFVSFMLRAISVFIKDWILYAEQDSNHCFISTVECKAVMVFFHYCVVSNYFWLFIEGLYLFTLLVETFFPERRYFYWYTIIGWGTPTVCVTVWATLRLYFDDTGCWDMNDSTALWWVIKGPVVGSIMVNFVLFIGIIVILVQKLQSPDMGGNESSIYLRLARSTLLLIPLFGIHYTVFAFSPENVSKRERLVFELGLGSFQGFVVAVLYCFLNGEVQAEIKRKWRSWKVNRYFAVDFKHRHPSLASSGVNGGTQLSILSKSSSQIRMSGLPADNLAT
The data set is described as follows: Calcium influx assay, antagonist activity against PACAP-PAC1 signaling. Type of data set: cell-based. Particulars: ligand PACAP (35 nM) at EC80; CHO-K1 cells; n = 4 wells, ± S.E.M; read-out: Ca influx assay [IC50 (nM)] PAC1. As for the experimental part:
Evaluation of antagonist activities of peptides against VIP-VIPR1, VIP-VIPR2, and PACAP-PAC1 signaling pathways and agonistic activity of KS-133 at VIPR2 was carried out by Eurofins DiscoverX (Fremont, CA, United States). Intracellular calcium mobilization was monitored using a calcium-sensitive dye loaded in CHO-K1 cells expressing human VIPR1 (ITEM 86-0030P-2243AN), VIPR2 (ITEM 86-0030P-2244AN), and PAC1 (ITEM 86-0030P-2066AN). The cells were preincubated with antagonistic peptides for 30 min at room temperature in the dark. After addition of the ligand at EC80, calcium mobilization was immediately monitored by FLIPR Tetra for 2 min. Cyclic AMP production in CHO-K1 cells expressing human VIPR2 was evaluated using HitHunter® cAMP assays (antagonist mode: ITEM 86-0007P-2362AN; agonist mode: ITEM 86-0007P-2362AG). The cells were preincubated with antagonistic peptides for 30 min at room temperature. After addition of the ligand at EC80, cells were further incubated for 30 min at room temperature. Cells were lysed and the cAMP content of the cell lysate was determined by the β-galactosidase-based enzyme fragment complementation assay ([Eglen, 2002]). IC50 values were estimated by the following equation: IC50 = 10^[Log(A/B) × (50–D)/(C–D) + Log(B)], where A is the concentration at >50% inhibition, B is the concentration at <50% inhibition, C is the inhibition rate at concertation A, and D is the inhibition rate at concertation B.
First, the antagonistic activities of parental VIpep-3, KS-132, KS-133 (monocyclic) (no bridging between Lys^7 and Asp^11), and KS-133 against human VIPR1, VIPR2, and PAC1 were evaluated by a calcium influx assay. After antagonistic peptide treatment for 30 min, ligand at a concentration of EC80 was added to the cells and then calcium signaling was measured.
FIGURE 3 Antagonistic/agonistic activities of peptides in the calcium influx and cAMP assays. For evaluation of the antagonistic activity, the cells were preincubated with antagonistic peptides for 30 min. In the calcium influx assay, after addition of ligand at EC80, calcium mobilization was monitored immediately (see details in the Methods section) (n = 4 wells for each treatment). In the cAMP assay, after a 30 min incubation with the ligand at EC80, cAMP production in cells was measured (see details in the Methods section) (n = 4 wells for each treatment).

Data set [3] in a line: Plasma and brain levels after intravenous administration. Type of data set: in vivo. To be noted: mouse. From the text:
Generally, drug discovery to target molecules in the CNS is harder than in peripheral tissues. Molecule exchange between the periphery and CNS is strictly restricted by the blood−brain barrier (BBB), especially molecules with a molecular weight (MW) of >400 g/mol. In addition to the MW limit, CNS drugs need to have high lipophilicity to cross the BBB ([McMartin et al., 1987]; [Dong, 2018]), but high lipophilic small molecules likely have undesirable side effects by potential off-target binding. Conversely, the MW of KS-133 was 1558 g/mol, which would avoid off-target side effects by VIPR2-selective binding but would make it difficult to cross the BBB. […] However, it was unclear whether the alterations in CREB phosphorylation were due to directly effects of s.c. injection of Ro 25-1553 and KS-133 on VIPR2 in the CNS. […] Intranasal administration is an attractive route for drug delivery to the brain because it allows direct transport of drugs from the nasal cavity to the brain parenchyma by bypassing systemic circulation ([Thorne et al., 2004]; [Lochhead and Thorne, 2012]; [Iwasaki et al., 2019]). It has been reported that about 1% of an administered molecule enters the CNS without crossing the BBB by administration to the nasal cavity, even those with a MW of 1000 g/mol ([McMartin et al., 1987]; [Dong, 2018]). There are some reports that the BBB becomes leaky in patients with psychiatric disorders such as schizophrenia and ASD ([Patel and Frey, 2015]; [Najjar et al., 2017]; [Kealy et al., 2020]). […] In the future, to clarify the mechanism and routes of how administered KS-133 targets the CNS, detailed pharmacokinetic studies of KS-133 in healthy mice and disease model mice using s.c., i.n., and intravenous administrations will be needed.

As a reminder, the IC50 is the concentration needed to halve the response being measured.

Regarding `CC[C@H](C)[C@H](NC(=O)[C@H](CC(C)C)NC(=O)[C@@H]1CC(=O)NCCCC[C@@H]2NC(=O)[C@@H]3CCCN3C(=O)[C@H](CC(C)C)NC(=O)[C@H](Cc3ccc(O)cc3)NC(=O)[C@@H]3CCCN3C(=O)[C@@H]3CCCN3C(=O)[C@@H](NC(C)=O)CSSC[C@H](NC(=O)[C@H](CC(C)C)NC(=O)[C@H](Cc3ccc(O)cc3)NC2=O)C(=O)N1)C(N)=O` [KS-133, Ac-c[Cys-Pro-Pro-Tyr-Leu-Pro-c(Lys-Tyr-Leu-Cys]-Asp)-Leu-Ile-NH2] (Ac-CPPYLPKYLCDLI-NH2; disulfide 1-10; lactam 7-11), the “cAMP assay (nM) Agonistic activity VIPR2” value in data set [1] (agonist mode, CHO-K1 cells) was >5,000 nM. The “VIPR2 agonist activity” value in data set [1] (cAMP assay, at high concentration of 5 μM) is listed as “did not exhibit VIPR2 agonist activity”. The IC50 in data set [2] is > 5000 nM. The same molecule came in with a tissue level at time molar at 80 min in data set [3] (brain, adult male ICR mice, 80 min after intravenous KS-133 1 nmol/g, n = 3, mean ± S.E.M., unpublished data) of 0.035 ± 0.005 nmol/g. Also, the Plasma elimination half-life entry in data set [3] (in vivo) is “less than an hour”. Also, the level at time molar at 80 min in data set [3] (plasma, adult male ICR mice, 80 min after intravenous KS-133 1 nmol/g, n = 3, mean ± S.E.M., unpublished data) came to 2780 ± 80 nM.
